What is called Cmax is the highest concentration seen after dosing. By Vss is commonly meant the apparent volume that relates the amount in the body to the concentration in plasma or blood. Higher therefore signals extensive tissue distribution.

The nature of series [1]: Pharmacokinetic behavior in mice (plasma concentration by LC-MS/MS). Format: in vivo. The note with it: male ICR mice. The protocol:
Three healthy ICR mice (SPF grade, from Beijing Vital River Laboratory Animal Technology Co., Ltd.), male, weighing 18-25 g, were intravenously injected with a compound (1 mg/kg) at a volume of 5 mL/kg. The compound was prepared using 5% DMSO+10% Solutol+85% Saline (w/v), and the animals were not fasted before the experiment.
Three healthy ICR mice (SPF grade, from Beijing Vital River Laboratory Animal Technology Co., Ltd.), male, weighing 18-25 g, were intragastrically administered a compound (5 mg/kg) at a volume of 10 mL/kg. The compound was prepared using 5% DMSO+10% Solutol+85% Saline (w/v), and the animals were not fasted before the experiment.
Blood samples (about 0.05 mL each) were collected from the cheeks at 5 min, 15 min, 30 min, 1 h, 2 h, 4 h, 6 h, 8 h, and 24 h after intravenous administration, and at 5 min, 15 min, 30 min, 1 h, 2 h, 4 h, 6 h, 8 h, and 24 h after intragastrical administration, and anticoagulated with heparin sodium. Following collection, the blood samples were placed on ice and the plasma was centrifuged within 1 h (centrifugation conditions: 6,000 g, 3 min, 2 °C to 8°C). The concentration of the compounds in the plasma was determined by liquid chromatography tandem mass spectrometry. The plasma samples were stored in a -80°C freezer before analysis. With plasma concentration data at different time points, pharmacokinetic parameters were calculated by Phoenix WinNonlin8.2.0, and the results are shown in Table 4: Table 4

In series [2] the target is T1, IRAK4-HiBiT fusion protein (Homo sapiens, UniProt Q9NWZ3).
T1 construct: K562 from ATCC
T1 sequence (Q9NWZ3 1-460): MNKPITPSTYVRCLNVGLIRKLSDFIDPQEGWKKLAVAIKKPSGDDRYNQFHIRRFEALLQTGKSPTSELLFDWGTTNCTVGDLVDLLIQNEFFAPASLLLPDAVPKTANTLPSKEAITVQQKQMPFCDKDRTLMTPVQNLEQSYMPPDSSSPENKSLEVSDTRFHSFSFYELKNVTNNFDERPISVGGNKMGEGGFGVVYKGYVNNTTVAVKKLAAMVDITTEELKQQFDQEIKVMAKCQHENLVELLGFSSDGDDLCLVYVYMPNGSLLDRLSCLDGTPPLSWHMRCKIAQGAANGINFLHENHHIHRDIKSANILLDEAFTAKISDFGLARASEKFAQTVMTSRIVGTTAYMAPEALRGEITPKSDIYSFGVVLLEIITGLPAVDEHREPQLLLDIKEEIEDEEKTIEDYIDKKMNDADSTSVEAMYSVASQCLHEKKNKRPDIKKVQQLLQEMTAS
Briefly: Detection of HiBiT-IRAK4 proteolysis levels in K562 IRAK4-HiBiT cells (Nano-Glo HiBiT Lytic assay). Format: cell-based. The method, then: Test Example 1 Detection of HiBiT-IRAK4 proteolysis levels in K562 IRAK4-HiBiT cells co-incubated with compounds of the present application • Reagents, devices, and consumables in experiments: • Nano-Glo Lytic Detection Assay, purchased from Promega; • EnVision, purchased from PerkinElmer; • Name of cell line: K562 IRAK4-HiBiT stable transformation cell strain (capable of stably expressing IRAK4-HiBiT fusion protein), constructed by Shanghai Bioduro Biologics Co., Ltd., where a K562 cell strain was purchased from ATCC. The culture medium is IMDM+10% FBS+1% P/S (volume percentage, where FBS is fetal bovine serum and P/S is Penicillin-Streptomycin, a 1:1 mixture of penicillin and streptomycin antibiotic solution (10,000 units/mL)).
Cell culture: K562 IRAK4-HiBiT cells were incubated at 37°C, and passaged every 2-3 d, with a seeding density of 200,000 cells/mL.
IRAK4-HiBiT proteolysis experiment: • Step 1: Cell seeding and treatment of compound • 1. A 10 mM compound mother liquor was prepared using DMSO, and a compound solution with a working concentration of 1,000 times (the highest working concentration is 10 µM, diluted 3.162 times, with a total of 10 concentration gradients) was prepared using Bravo automatic liquid processing platform. • 2. 40 nL of a compound working solution was transferred to a 384 well plate, and an equal volume of DMSO was added to positive control wells. • 3. 20 µL of a culture solution was added per well and shaken for 10 min. • 4.20 µL of a K562 IRAK4-HiBiT cell suspension was added per well (6,000 cells/well), and an equal volume of culture medium was added to negative control wells. • 5. The well plate was rotated at 1,000 rpm for 1 min. • 6. The cells were incubated in a 5% CO2 incubator at 37°C for 2 h or 6 h. • Step 2: HiBiT Lytic experiment • 1. The well plate was placed at room temperature to equilibrate for 30 min. • 2. 20 µL of Nano-Glo HiBiT Lytic reagent (trade name: Nano-Glo® HiBiT Lytic Detection Reagent) and the well plate was kept in the dark. • 3. The well plate was placed on an orbital shaker at 300 rpm for 5 min. • 4. The cells were incubated at room temperature for 10 min. • 5. The luminous value was read by Envision. • 6. Data was calculated and processed. Degradation degree%=(negative control - experimental well)/(negative control - positive control) * 100%. Using XL-fit software, a degradation curve was obtained by fitting using a 4 Parameter Logistic Model, and the values of Relative DC50 (nM) and Absolute DC50 (nM) were obtained.

The mark [3] stands for this setting: Intragastric administration (5 mg/kg), 5 mg/kg.
[4] abbreviates: Intravenous injection (1 mg/kg), 1 mg/kg.
[5] abbreviates: 6 h incubation, read-out: Absolute DC50.
The mark [6] stands for this setting: 6 h incubation, read-out: Relative DC50.
The mark [7] stands for this setting: 2 h incubation, read-out: Absolute DC50.
Setting [8] is: 2 h incubation, read-out: Relative DC50.

Like-named read-outs stand apart in the source and are kept apart here. A value given as a limit tells only on which side of the number the result lay.

For `CC(C)(O)c1cc2nn([C@H]3CC[C@H](CCN4CCN5c6ccc(C7(C)CCC(=O)NC7=O)cc6OC[C@H]5C4)CC3)cc2cc1NC(=O)c1cccc(C(F)(F)F)n1` (single isomer, unassigned) [Compound 120-b-1], in series [1] (setting [3]), the AUClast stood at 16903 ng·h/mL, the Cmax came out at 1457 ng/mL, the F% was determined as 44.5% and the T1/2 was 5.32 h. Moreover, in series [1] (setting [4]), the AUClast came to 7249 ng·h/mL, the CL amounted to 2.10 mL/min/kg, the Cmax was 888 ng/mL and the Vss stood at 1.19 L/kg.

`CC(C)(O)c1cc2nn([C@H]3CC[C@H](CCN4CCN5c6ncc(C7CCC(=O)NC7=O)cc6OCC5C4)CC3)cc2cc1NC(=O)c1cccc(C(F)(F)F)n1` (some centres unmarked) [Compound 2]: the Dmax in series [2] (6 h incubation) amounted to 96%. For the same molecule, the DC50 came to 6.32 nM in series [2] (setting [5]) and 5.43 nM in series [2] (setting [6]).

In series [2] (6 h incubation), `COc1cc2nn([C@H]3CC[C@H](CCN4CCN5c6ccc(C7CCC(=O)NC7=O)cc6OCC5C4)CC3)cc2cc1C(=O)Nc1cccc(C(F)(F)F)n1` (some centres unmarked) [Compound 95] displayed a Dmax of 97%. Moreover, the DC50 in series [2] (setting [5]) is 3.87 nM; in series [2] (setting [6]), 4.83 nM.

Turning to `COc1cc2nn(C3CCN(CCN4CCC5(CC4)OCc4cc(C6CCC(=O)NC6=O)ccc45)CC3)cc2cc1NC(=O)c1cccc(C(F)(F)F)n1` (centres unmarked) [Compound 97], the Dmax in series [2] (6 h incubation) was 93%. For the same molecule, the DC50 in series [2] (setting [5]) is 1.64 nM; in series [2] (setting [6]) it was 1.6 nM.

In the case of `COc1cc2nn(C3CCN(CCN4CCN5c6ccc(C7CCC(=O)NC7=O)cc6OCC5C4)CC3)cc2cc1NC(=O)c1cccc(C(F)(F)F)n1` (centres unmarked) [Compound 98], the Dmax in series [2] (6 h incubation) stood at 89%. The DC50 in series [2] (setting [5]) is less than 1 nM; in series [2] (setting [6]), 0.2 nM.

As to `CC(C)(O)c1cc2nn(C3CCN(CCN4CCN5c6ccc(C7CCC(=O)NC7=O)cc6OCC5C4)CC3)cc2cc1NC(=O)c1cccc(C(F)(F)F)n1` (centres unmarked) [Compound 99], the Dmax in series [2] (2 h incubation) was 66%. Moreover, the DC50 in series [2] (setting [7]) was found to be 40.3 nM; in series [2] (setting [8]), 13.5 nM.

Consider `[2H]C1(c2ccc3c(c2)OCC2CN(CCC4CCC(n5cc6cc(NC(=O)c7cccc(C(F)(F)F)n7)c(C(C)(C)O)cc6n5)CC4)CCN32)CCC(=O)NC1=O` (centres unmarked) [Compound 101], for which, in series [2] (2 h incubation), the Dmax was 87%. Besides, the DC50 worked out at 7.2 nM in series [2] (setting [7]) and 4.28 nM in series [2] (setting [8]).

Take `CC(C)(O)c1cc2nn([C@H]3CC[C@H](CN4CCC5(CC4)OCc4cc(C6CCC(=O)NC6=O)ccc45)CC3)cc2cc1NC(=O)c1cccc(C(F)(F)F)n1` (some centres unmarked) [Compound 114]: the Dmax in series [2] (6 h incubation) stood at 85%. The DC50 in series [2] (setting [5]) worked out at 4.85 nM; in series [2] (setting [6]) it was 3.99 nM.

For the molecule `CC(C)(O)c1cc2nn([C@H]3CC[C@H](CCN4CC5(CCN6c7ccc(C8CCC(=O)NC8=O)cc7NC6C5)C4)CC3)cc2cc1NC(=O)c1cccc(C(F)(F)F)n1` (some centres unmarked) [Compound 115], the Dmax in series [2] (6 h incubation) was 77%. The DC50 in series [2] (setting [5]) is 146 nM; in series [2] (setting [6]), 81.4 nM.

In the case of `CC(C)(O)c1cc2nn([C@H]3CC[C@H](CCN4CCN5c6ncc(N7CCC(=O)NC7=O)cc6OCC5C4)CC3)cc2cc1NC(=O)c1cccc(C(F)(F)F)n1` (some centres unmarked) [Compound 116], the Dmax in series [2] (6 h incubation) stood at 83%. Further, the DC50 came to 8.37 nM in series [2] (setting [5]) and 4.48 nM in series [2] (setting [6]).

The molecule `CC(C)(O)c1cc2nn([C@H]3CC[C@H](CCN4CCN5c6ccc(N7CCC(=O)NC7=O)cc6OCC5C4)CC3)cc2cc1NC(=O)c1cccc(C(F)(F)F)n1` (some centres unmarked) [Compound 117] showed a Dmax in series [2] (6 h incubation) of 89%. For the same molecule, the figures for the DC50 in series [2] (setting [5]) and in series [2] (setting [6]) were 11.7 nM and 10.3 nM, respectively.

Turning to `CC(C)(O)c1cc2nn([C@H]3CC[C@H](CCN4CCN5c6ccc(N7CCC(=O)NC7=O)cc6CCC5C4)CC3)cc2cc1NC(=O)c1cccc(C(F)(F)F)n1` (some centres unmarked) [Compound 118], the Dmax in series [2] (2 h incubation) worked out at 61%. For the same molecule, the DC50 in series [2] (setting [7]) turned out to be 4.62 nM; in series [2] (setting [8]), 0.96 nM.

`CC(C)(O)c1cc2nn([C@H]3CC[C@H](CCN4CCN5c6ccc(C7CCC(=O)NC7=O)cc6CCC5C4)CC3)cc2cc1NC(=O)c1cccc(C(F)(F)F)n1` (some centres unmarked) [Compound 119] registered a Dmax in series [2] (2 h incubation) of 93%. The DC50 in series [2] (setting [7]) is 1.11 nM; in series [2] (setting [8]), 1.02 nM.

For `CC(C)(O)c1cc2nn([C@H]3CC[C@H](CCN4CCN5c6ccc(C7(C)CCC(=O)NC7=O)cc6OCC5C4)CC3)cc2cc1NC(=O)c1cccc(C(F)(F)F)n1` (some centres unmarked) [Compound 120], the Dmax in series [2] (2 h incubation) was found to be 90%. The DC50 in series [2] (setting [7]) was found to be 39 nM; in series [2] (setting [8]) it was 27.8 nM.

Molecule `CC(C)(O)c1cc2nn([C@H]3CC[C@H](CCN4CCN5c6ccc(C7(C)CCC(=O)NC7=O)cc6OCC5C4)CC3)cc2cc1NC(=O)c1ccc2cc(C#N)cnn12` (some centres unmarked) [Compound 126] returned a Dmax in series [2] (6 h incubation) of 97%. For the same molecule, the DC50 in series [2] (setting [5]) came out at 10.8 nM; in series [2] (setting [6]), 12.3 nM.

In turn, `CC(C)(O)c1cc2nn([C@H]3CC[C@H](CCN4CCN5c6ccc(C7CCC(=O)NC7=O)cc6OCC5C4)CC3)cc2cc1NC(=O)c1ccc2cc(C#N)cnn12` (some centres unmarked) [Compound 129] had a Dmax in series [2] (6 h incubation) of 97%. In addition, the DC50 was 4.41 nM in series [2] (setting [5]) and 4.32 nM in series [2] (setting [6]).

As to `CC(C)(O)c1cc2nn([C@H]3CC[C@H](CCN4CCN5c6ccc(C7CCC(=O)NC7=O)cc6OCCC5C4)CC3)cc2cc1NC(=O)c1cccc(C(F)(F)F)n1` (some centres unmarked) [Compound 130], the Dmax in series [2] (6 h incubation) was found to be 97%. The DC50 in series [2] (setting [5]) turned out to be 8.13 nM; in series [2] (setting [6]) it was 8.51 nM.

Values taken from EP4696691A1, “TRICYCLIC COMPOUND, AND PREPARATION METHOD THEREFOR AND USE THEREOF” (Shanghai Huilun Pharmaceutical Co., Ltd., priority 2023, dated 2024).
